Measurements from patent publication US12077503B2, “Substituted cyclic amides and their use as herbicides” (FMC CORPORATION, priority 2015, dated 2024).

Key:
Format in all cases: in vivo
[1] = system: wheat (Triticum aestivum); test: Test A postemergence; settings: Triticum aestivum, post-emergence, 240 h; for plant injury at 125 g/ha: 125 g ai/ha, postemergence, visual injury on 0 to 100 scale (0 no effect, 100 complete control), approx. 10 d, read-out: Wheat plant response rating; for plant injury at 31 g/ha: Postemergence, 31 g ai/ha, visual injury after approx. 10 d, 0 to 100 scale, 0 no effect, 100 complete control, read-out: Plant response rating, Wheat
Procedure, shortened: (§1)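 Compounds were formulated in a non-phytotoxic solvent mixture with surfactant and applied as a preemergence directed soil spray after seeding, or sprayed postemergence over plants 2 to 10 cm tall at the one- to two-leaf stage. Evaluation after about 10 d compared treated with untreated controls, using a scale from 0 (no effect) to 100 (complete control).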

[2] = system: corn (Zea mays); test: Test A postemergence; settings: Zea mays, post-emergence, 240 h; for plant injury at 125 g/ha: 125 g ai/ha, postemergence, visual injury on 0 to 100 scale (0 no effect, 100 complete control), approx. 10 d, read-out: Corn plant response rating; for Corn plant response rating (crop injury, 0 = no effect, 100 = complete kill) at 31 g/ha: Postemergence, 31 g ai/ha, visual injury after approx. 10 d, 0 to 100 scale, 100 complete control
Procedure, shortened: as §1

[3] = system: Galium (catchweed bedstraw, Galium aparine); test: Test A postemergence; settings: Galium, post-emergence, 240 h; for pest or weed control at 125 g/ha: 125 g ai/ha, postemergence, visual injury on 0 to 100 scale (0 no effect, 100 complete control), approx. 10 d, read-out: Galium plant response rating; for pest or weed control at 31 g/ha: Postemergence, 31 g ai/ha, visual injury after approx. 10 d, 0 to 100 scale, 0 no effect, 100 complete control, read-out: Plant response rating, Galium
Procedure, shortened: as §1

[4] = system: ryegrass, Italian (Italian ryegrass, Lolium multiflorum); test: Test A postemergence; settings: Lolium multiflorum, post-emergence, 240 h; for pest or weed control at 125 g/ha: 125 g ai/ha, postemergence, visual injury on 0 to 100 scale (0 no effect, 100 complete control), approx. 10 d, read-out: Ryegrass, Italian plant response rating; for pest or weed control at 31 g/ha: Postemergence, 31 g ai/ha, visual injury after approx. 10 d, 0 to 100 scale, 0 no effect, 100 complete control, read-out: Plant response rating, Ryegrass, Italian
Procedure, shortened: as §1

[5] = system: Kochia (Kochia scoparia); test: Test A postemergence; settings: Bassia scoparia, post-emergence, 240 h; for pest or weed control at 125 g/ha: 125 g ai/ha, postemergence, visual injury on 0 to 100 scale (0 no effect, 100 complete control), approx. 10 d, read-out: Kochia plant response rating; for pest or weed control at 31 g/ha: Postemergence, 31 g ai/ha, visual injury after approx. 10 d, 0 to 100 scale, 0 no effect, 100 complete control, read-out: Plant response rating, Kochia
Procedure, shortened: as §1

[6] = system: barnyardgrass (Echinochloa crus-galli); test: Test A postemergence; settings: Echinochloa crus-galli, post-emergence, 240 h; for pest or weed control at 125 g/ha: 125 g ai/ha, postemergence, visual injury on 0 to 100 scale (0 no effect, 100 complete control), approx. 10 d, read-out: Barnyardgrass plant response rating; for pest or weed control at 31 g/ha: Postemergence, 31 g ai/ha, visual injury after approx. 10 d, 0 to 100 scale, 0 no effect, 100 complete control, read-out: Plant response rating, Barnyardgrass
Procedure, shortened: as §1

[7] = system: ragweed (common ragweed, Ambrosia elatior); test: Test A postemergence; settings: Ambrosia artemisiifolia, post-emergence, 240 h; for pest or weed control at 125 g/ha: 125 g ai/ha, postemergence, visual injury on 0 to 100 scale (0 no effect, 100 complete control), approx. 10 d, read-out: Ragweed plant response rating; for pest or weed control at 31 g/ha: Postemergence, 31 g ai/ha, visual injury after approx. 10 d, 0 to 100 scale, 0 no effect, 100 complete control, read-out: Plant response rating, Ragweed
Procedure, shortened: as §1

[8] = system: blackgrass (Alopecurus myosuroides); test: Test A postemergence; settings: Alopecurus myosuroides, post-emergence, 240 h; for pest or weed control at 125 g/ha: 125 g ai/ha, postemergence, visual injury on 0 to 100 scale (0 no effect, 100 complete control), approx. 10 d, read-out: Blackgrass plant response rating; for pest or weed control at 31 g/ha: Postemergence, 31 g ai/ha, visual injury after approx. 10 d, 0 to 100 scale, 0 no effect, 100 complete control, read-out: Plant response rating, Blackgrass
Procedure, shortened: as §1

[9] = system: pigweed (Amaranthus retroflexus); test: Test A postemergence; settings: Amaranthus retroflexus, post-emergence, 240 h; for pest or weed control at 125 g/ha: 125 g ai/ha, postemergence, visual injury on 0 to 100 scale (0 no effect, 100 complete control), approx. 10 d, read-out: Pigweed plant response rating; for pest or weed control at 31 g/ha: Postemergence, 31 g ai/ha, visual injury after approx. 10 d, 0 to 100 scale, 0 no effect, 100 complete control, read-out: Plant response rating, Pigweed
Procedure, shortened: as §1

[10] = system: giant foxtail (Setaria faberii); test: Test A postemergence; settings: Setaria faberi, post-emergence, 240 h; for pest or weed control at 125 g/ha: 125 g ai/ha, postemergence, visual injury on 0 to 100 scale (0 no effect, 100 complete control), approx. 10 d, read-out: Foxtail, Giant plant response rating; for pest or weed control at 31 g/ha: Postemergence, 31 g ai/ha, visual injury after approx. 10 d, 0 to 100 scale, 0 no effect, 100 complete control, read-out: Plant response rating, Foxtail, Giant
Procedure, shortened: as §1

[11] = system: ryegrass, Italian (Italian ryegrass, Lolium multiflorum); test: Test A preemergence; settings: Lolium multiflorum, pre-emergence, 240 h, 0 to 100 scale where 0 is no effect and 100 is complete control, read-out: Ryegrass, Italian plant response rating; for pest or weed control at 31 g/ha: 31 g ai/ha, Preemergence; for pest or weed control at 125 g/ha: 125 g ai/ha, preemergence, approx. 10 d
Procedure, shortened: as §1

[12] = system: Kochia (Kochia scoparia); test: Test A preemergence; settings: Bassia scoparia, pre-emergence, 240 h, 0 to 100 scale where 0 is no effect and 100 is complete control, read-out: Kochia plant response rating; for pest or weed control at 31 g/ha: 31 g ai/ha, Preemergence; for pest or weed control at 125 g/ha: 125 g ai/ha, preemergence, approx. 10 d
Procedure, shortened: as §1

[13] = system: barnyardgrass (Echinochloa crus-galli); test: Test A preemergence; settings: Echinochloa crus-galli, pre-emergence, 240 h, Preemergence; for pest or weed control at 31 g/ha: 31 g ai/ha, 0 to 100 scale where 0 is no effect and 100 is complete control, read-out: Barnyardgrass plant response rating; for pest or weed control at 125 g/ha: 125 g ai/ha, visual injury rating after approximately 10 d, read-out: Barnyardgrass plant response rating (0 to 100 scale, 0 is no effect, 100 is complete control)
Procedure, shortened: as §1

[14] = system: ragweed (common ragweed, Ambrosia elatior); test: Test A preemergence; settings: Ambrosia artemisiifolia, pre-emergence, 240 h, 0 to 100 scale where 0 is no effect and 100 is complete control, read-out: Ragweed plant response rating; for pest or weed control at 31 g/ha: 31 g ai/ha, Preemergence; for pest or weed control at 125 g/ha: 125 g ai/ha, preemergence, approx. 10 d
Procedure, shortened: as §1

[15] = system: pigweed (Amaranthus retroflexus); test: Test A preemergence; settings: Amaranthus retroflexus, pre-emergence, 240 h, 0 to 100 scale where 0 is no effect and 100 is complete control, read-out: Pigweed plant response rating; for pest or weed control at 31 g/ha: 31 g ai/ha, Preemergence; for pest or weed control at 125 g/ha: 125 g ai/ha, preemergence, approx. 10 d

SMILES	plant injury at 125 g/ha [1]	plant injury at 31 g/ha [1]	plant injury at 125 g/ha [2]	Corn plant response rating (crop injury, 0 = no effect, 100 = complete kill) at 31 g/ha [2]	pest or weed control at 125 g/ha [3]	pest or weed control at 31 g/ha [3]	pest or weed control at 125 g/ha [4]	pest or weed control at 31 g/ha [4]	pest or weed control at 125 g/ha [5]	pest or weed control at 31 g/ha [5]	pest or weed control at 125 g/ha [6]	pest or weed control at 31 g/ha [6]	pest or weed control at 125 g/ha [7]	pest or weed control at 31 g/ha [7]	pest or weed control at 125 g/ha [8]	pest or weed control at 31 g/ha [8]	pest or weed control at 125 g/ha [9]	pest or weed control at 31 g/ha [9]	pest or weed control at 125 g/ha [10]	pest or weed control at 31 g/ha [10]	also measured
COc1cccc([C@H]2CN(C)C(=O)[C@@H]2C(=O)Nc2cccc(F)c2F)c1 [Compound 1062]	30%	0%	0%	0%	50%	0%	20%	0%	0%	0%	90%	70%	30%	30%	30%	0%	0%	0%	90%	90%	pest or weed control at 31 g/ha [11]: 10%; pest or weed control at 125 g/ha [11]: 20%; pest or weed control at 31 g/ha [12]: 0%; pest or weed control at 125 g/ha [12]: 20%; pest or weed control at 31 g/ha [13]: 100%; pest or weed control at 125 g/ha [13]: 100%; pest or weed control at 31 g/ha [14]: 70%; pest or weed control at 125 g/ha [14]: 0%; pest or weed control at 31 g/ha [15]: 0%; pest or weed control at 125 g/ha [15]: 0%
COc1cccc([C@H]2CN(C)C(=O)[C@@H]2C(=O)Nc2ccc(F)c(F)c2F)c1 [Compound 1063]	40%	0%	50%	0%	50%	30%	30%	0%	0%	0%	90%	70%	0%	0%	30%	20%	20%	0%	90%	80%	pest or weed control at 31 g/ha [11]: 0%; pest or weed control at 125 g/ha [11]: 0%; pest or weed control at 31 g/ha [12]: 10%; pest or weed control at 125 g/ha [12]: 20%; pest or weed control at 31 g/ha [13]: 100%; pest or weed control at 125 g/ha [13]: 100%; pest or weed control at 31 g/ha [14]: 0%; pest or weed control at 125 g/ha [14]: 30%; pest or weed control at 31 g/ha [15]: 0%; pest or weed control at 125 g/ha [15]: 0%
